This passage reports IC50, Activity and inhibition results from ChEMBL document CHEMBL3608206, “Phenolic 4-hydroxy and 3,5-dihydroxy derivatives of 3-phenoxyquinoxalin-2(1H)-one as potent aldose reductase inhibitors with antioxidant activity” (Bioorg Med Chem Lett, 2015).

Data set [1] has as its target Aldo-keto reductase family 1 member B1 (Rattus norvegicus, UniProt P07943). Kind of data set: Inhibition of Wistar rat ALR2 using D,L-glyceraldehyde as substrate assessed as oxidation of NADPH preincubated for 10 mins followed by substrate addition measured for 4 mins by spectrophotometric analysis.
Data set [2] is described as follows: Antioxidant activity assessed as DPPH radical scavenging activity at 50 uM after 240 mins by spectrophotometric analysis relative to control. Format: physicochemical. Particulars: 4 h.
The nature of data set [3]: Antioxidant activity assessed as DPPH radical scavenging activity at 100 uM after 240 mins by spectrophotometric analysis relative to control. Particulars: 4 h. The class given is physicochemical.
In data set [4] the test system is Brain. The data set can be described thus: Antioxidant activity in rat brain assessed as inhibition of MDA production at 100 uM by TBARS assay relative to control. The class given is functional.
Data set [5] concerns Brain. Kind of data set: Antioxidant activity in rat brain assessed as inhibition of MDA production at 10 uM by TBARS assay relative to control. The class given is functional.
In data set [6] the target is Aldo-keto reductase family 1 member B1 (Rattus norvegicus) (UniProt P07943). The data set can be described thus: Inhibition of Wistar rat ALR2 using D,L-glyceraldehyde as substrate assessed as oxidation of NADPH at 10 uM preincubated for 10 mins followed by substrate addition measured for 4 mins by spectrophotometric analysis relative to control.

Consider `O=C(O)Cn1c(=O)c(Oc2ccc(O)cc2)nc2ccc(Cl)cc21`, for which, in data set [1], the IC50 came out at 179 nM. The results for the Activity in data set [2] and in data set [3] were 47.3% and 84.8%, respectively. In addition, the inhibition at 100 µM with Brain [4] is 49.4%. For the same compound, the inhibition at 10 µM in the data set on Brain [5] was 10.1%.
With `Cc1c(C)c2c(c(C)c1O)CCC(C)(C(=O)O)O2` (stereo not drawn) [TROLOX], the Activity was 93.3% in data set [2] and 96.7% in data set [3]. The inhibition at 100 µM with Brain [4] was determined as 71.3%. Besides, the inhibition at 10 µM with Brain [5] worked out at 90.1%.
For the compound `O=C(O)Cn1c(=O)c(Oc2ccc(O)cc2)nc2cc(F)ccc21`, the IC50 in data set [1] was found to be 19.6 nM. Further, the Activity in data set [3] was determined as 23.7%. The inhibition at 100 µM in the data set with Brain [4] worked out at 14.3%.
On to `O=C(O)Cn1c(=O)c(Oc2cc(O)cc(O)c2)nc2ccc(Cl)cc21`, for which the concentration for half-maximal inhibition (IC50) in data set [1] is 566 nM. Further, the Activity in data set [2] was determined as 83.7%; in data set [3], 91.3%. For the same compound, the inhibition at 100 µM with Brain [4] was determined as 55.3%. The inhibition at 10 µM in the data set with Brain [5] amounted to 26.6%.
Take `O=C(O)Cn1c(=O)c(Oc2cc(O)cc(O)c2)nc2cc(F)ccc21`: the IC50 in data set [1] came to 130 nM. For the same compound, in data set [3], the Activity stood at 25.4%. For the same compound, the inhibition at 100 µM with Brain [4] was 15.5%.
For `O=C(O)Cn1c(=O)c(Oc2cc(O)cc(O)c2)nc2ccccc21`, the IC50 in data set [1] came to 940 nM. The values for the Activity in data set [2] and in data set [3] were 46.5% and 67.4%, respectively. Moreover, in the data set with Brain [4], the inhibition at 100 µM turned out to be 34.5%. In addition, the inhibition at 10 µM with Brain [5] was determined as 5.7%.
For the compound `O=C(O)Cn1c(=O)c(Oc2ccc(O)cc2)nc2ccccc21`, in data set [1], the IC50 stood at 374 nM. The Activity in data set [3] stood at 21.3%. Also, the inhibition at 100 µM in the data set with Brain [4] was 12.3%.
Take `O=C(O)Cn1c(=O)c(Oc2cc(O)cc(O)c2)nc2ccc(F)cc21`: the Activity in data set [2] amounted to 29.3%; in data set [3] it was 38.2%. The inhibition in data set [6] turned out to be 34%. Besides, the inhibition at 100 µM in the data set on Brain [4] came to 20.3%. Also, the inhibition at 10 µM with Brain [5] was found to be 9.3%.
`O=C(O)Cn1c(=O)c(Oc2cc(O)cc(O)c2)nc2cc(Cl)ccc21`: in data set [1], the IC50 came out at 982 nM. Moreover, the Activity in data set [2] is listed as 34.5%; in data set [3], 56.5%. In addition, the inhibition at 100 µM in the data set with Brain [4] is 24.5%. In the data set on Brain [5], the inhibition at 10 µM was 8.1%.
